Molecular target: T1, human M1 receptor (hCHRM1) (Homo sapiens, UniProt P11229)
T1 construct: expressed in transfected cells
T1 sequence (P11229 1-460): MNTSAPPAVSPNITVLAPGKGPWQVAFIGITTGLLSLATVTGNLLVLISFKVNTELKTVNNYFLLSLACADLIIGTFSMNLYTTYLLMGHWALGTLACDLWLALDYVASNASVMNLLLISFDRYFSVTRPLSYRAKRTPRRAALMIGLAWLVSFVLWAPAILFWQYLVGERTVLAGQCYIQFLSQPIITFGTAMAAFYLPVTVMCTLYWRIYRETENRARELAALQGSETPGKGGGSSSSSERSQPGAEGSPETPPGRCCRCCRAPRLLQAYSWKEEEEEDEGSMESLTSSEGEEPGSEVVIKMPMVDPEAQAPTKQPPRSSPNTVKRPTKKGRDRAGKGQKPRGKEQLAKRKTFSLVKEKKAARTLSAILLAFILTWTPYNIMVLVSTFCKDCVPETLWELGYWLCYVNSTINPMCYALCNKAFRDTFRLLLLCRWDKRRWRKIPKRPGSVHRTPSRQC
Assay: Measurement of M1 receptor positive allosteric modulator (M1PAM) activity, Ca2+ fluorescence by FLIPRtetra (Experimental Example 1)
Assay type: cell-based
Details: for activity (%) at 10 μM: 10 μM test compound, 100% = acetylcholine 1 μM, 0% = DMSO; for EC50: inflection point of concentration-dependent curve, in presence of acetylcholine at EC20 (0.8-1.0 nM), CHO-K1 cells expressing hCHRM1, read-out: IP value
Experimental: Measurement of M1 Receptor Positive Allosteric Modulator (M1PAM) Activity
The activity of a test compound in the presence of acetylcholine at EC20 concentration (final concentration 0.8-1.0 nM), which affords an action corresponding to about 20% of the maximum activity, was measured as PAM activity. The method is as follows. CHO-K1 cells stably expressing a human M1 receptor (hCHRM1) were plated on a 384-well black clear bottom plate (BD Falcon) at 5,000 cells/well, and cultured in an incubator at 37° C., 5% CO2 for 1 day. The medium in the cell plate was removed, and a dye solution (prepared by adding Recording medium (DOJINDO LABORATORIES) to a final concentration of 1×concentration, Fluo-4 AM (DOJINDO LABORATORIES) to a final concentration of 2.5 μg/mL, Pluronic F127 (DOJINDO LABORATORIES) to a final concentration of 0.08%, and probenecid (DOJINDO LABORATORIES) to a final concentration of 1.25 mM to assay buffer (HBSS (Invitrogen), 20 mM HEPES (Invitrogen), 0.1% BSA (Wako Pure Chemical Industries, Ltd.))) was added at 30 μL/well. The cells were left standing in the incubator at 37° C., 5% CO2 for 30 min, and further left standing at room temperature for 30 min. A test compound prepared by diluting with assay buffer containing 3.2-4.0 nM acetylcholine was added at 10 μL/well, and the fluorescence was measured by FLIPRtetra (Molecular Devices) for 1 min every 1 second. With the definition that the amount of change in the fluorescence on addition of acetylcholine (final concentration 1 μM) is 100% and that on addition of DMSO instead of a test compound is 0%, the activity (%) of the test compound was calculated, and the inflection point in the concentration-dependent curve of the test compound was calculated as IP values.

| SMILES | activity (%) at 10 μM [%] | EC50 [nM] |
| --- | --- | --- |
| Cc1cc2c(cc1Cc1ccc(-n3cccn3)nc1)C(=O)N([C@H]1CCC[C@@H]1O)CO2 [Example 14, 3-((1S,2S)-2-hydroxycyclopentyl)-7-methyl-6-((6-(1H-pyrazol-1-yl)pyridin-3-yl)methyl)-2,3-dihydro-4H-1,3-benzoxazin-4-one] | 106 | 15 |
| Cc1c(Cc2ccc(-n3ccnc3)nc2)cc2c(c1Cl)OCN([C@H]1CCC[C@@H]1O)C2=O (relative stereo) [Example 39, 8-chloro-3-(trans-2-hydroxycyclopentyl)-6-((6-(1H-imidazol-1-yl)pyridin-3-yl)methyl)-7-methyl-2,3-dihydro-4H-1,3-benzoxazin-4-one] | 88 | 1.5 |
| COc1ccc(Cc2cc3c(c4ccccc24)OCN([C@H]2COCC[C@@H]2O)C3=O)cn1 [Example 46, 1,5-anhydro-2,4-dideoxy-2-(6-((6-methoxypyridin-3-yl)methyl)-4-oxo-2H-naphtho[2,1-e][1,3]oxazin-3(4H)-yl)-L-threo-pentitol] | 109 | 4.9 |
| Cc1ccc(Cc2cc3c(c(Cl)c2C)OCN([C@H]2COCC[C@@H]2O)C3=O)cn1 [Example 6, 1,5-anhydro-2-(8-chloro-7-methyl-6-((6-methylpyridin-3-yl)methyl)-4-oxo-2H-1,3-benzoxazin-3(4H)-yl)-2,4-dideoxy-L-threo-pentitol] | 102 | 7 |
| Cc1cc2c(cc1Cc1ccc(-c3cn(C)nn3)nc1)C(=O)N(CC1CCCO1)CO2 (stereo not shown) [Example 71, 7-methyl-6-((6-(1-methyl-1H-1,2,3-triazol-4-yl)pyridin-3-yl)methyl)-3-(tetrahydrofuran-2-ylmethyl)-2,3-dihydro-4H-1,3-benzoxazin-4-one] | 105 | 53 |
| Cc1c(Cc2ccc(Cl)nc2)cc2c(c1Cl)OCN(CC1CCCO1)C2=O (stereo not shown) [Example 87, 8-chloro-6-((6-chloropyridin-3-yl)methyl)-7-methyl-3-(tetrahydrofuran-2-ylmethyl)-2,3-dihydro-4H-1,3-benzoxazin-4-one] | 93 | 160 |
| Cc1ccc(Cc2cc3c(c(C)c2C)OCN([C@H]2COCC[C@@H]2O)C3=O)cn1 [Example 137, 1,5-anhydro-2,4-dideoxy-2-(7,8-dimethyl-6-((6-methylpyridin-3-yl)methyl)-4-oxo-2H-1,3-benzoxazin-3(4H)-yl)-L-threo-pentitol] | 104 | 14 |
| Cc1ccc(Cc2cc3c(c(Cl)c2C)OCN([C@H]2CCCC[C@@H]2O)C3=O)cn1 [Example 2, 8-chloro-3-((1S,2S)-2-hydroxycyclohexyl)-7-methyl-6-((6-methylpyridin-3-yl)methyl)-2,3-dihydro-4H-1,3-benzoxazin-4-one] | 106 | 2.5 |
| Cn1cc(-c2ccc(Cc3ccc4c(c3)C(=O)N([C@H]3CCCC[C@@H]3O)CO4)cc2)cn1 (relative stereo) [Example 66, 3-(trans-2-hydroxycyclohexyl)-6-(4-(1-methyl-1H-pyrazol-4-yl)benzyl)-2,3-dihydro-4H-1,3-benzoxazin-4-one] | 93 | 44 |
| Cc1cc(Cc2ccc(-n3cccn3)cc2)cc2c1OCN([C@H]1CCCC[C@@H]1O)C2=O (relative stereo) [Example 65, 3-(trans-2-hydroxycyclohexyl)-8-methyl-6-(4-(1H-pyrazol-1-yl)benzyl)-2,3-dihydro-4H-1,3-benzoxazin-4-one] | 99 | 35 |
| Cc1ccc(Cc2cc3c(cc2C)OCN([C@H]2CCC[C@@H]2O)C3=O)cn1 [Example 64, 3-((1S,2S)-2-hydroxycyclopentyl)-7-methyl-6-((6-methylpyridin-3-yl)methyl)-2,3-dihydro-4H-1,3-benzoxazin-4-one] | 99 | 34 |
| Cc1cc2c(cc1Cc1ccc(-n3cccn3)cc1)C(=O)N([C@H]1CCCC[C@@H]1O)CO2 (relative stereo) [Example 52, 3-(trans-2-hydroxycyclohexyl)-7-methyl-6-(4-(1H-pyrazol-1-yl)benzyl)-2,3-dihydro-4H-1,3-benzoxazin-4-one] | 101 | 11 |
| CCc1ccc(Cc2cc3c(c4ccccc24)OCN([C@H]2COCC[C@@H]2O)C3=O)cn1 [Example 38, 1,5-anhydro-2,4-dideoxy-2-(6-((6-ethylpyridin-3-yl)methyl)-4-oxo-2H-naphtho[2,1-e][1,3]oxazin-3(4H)-yl)-L-threo-pentitol] | 99 | 1.5 |
| Cc1ccc(Cc2cc3c(c4ccccc24)OCN([C@H]2CCC[C@@H]2O)C3=O)cn1 [Example 40, 3-((1S,2S)-2-hydroxycyclopentyl)-6-((6-methylpyridin-3-yl)methyl)-2,3-dihydro-4H-naphtho[2,1-e][1,3]oxazin-4-one] | 98 | 1.6 |
| COc1ccc(Cc2cc3c(c(F)c2C)OCN([C@H]2CCC[C@@H]2O)C3=O)cn1 [Example 18, 8-fluoro-3-((1S,2S)-2-hydroxycyclopentyl)-6-((6-methoxypyridin-3-yl)methyl)-7-methyl-2,3-dihydro-4H-1,3-benzoxazin-4-one] | 107 | 37 |
| Cc1c(Cc2ccc(-n3cccn3)cc2)cc2c(c1F)OCN([C@H]1CCC[C@@H]1O)C2=O (relative stereo) [Example 30, 8-fluoro-3-(trans-2-hydroxycyclopentyl)-7-methyl-6-(4-(1H-pyrazol-1-yl)benzyl)-2,3-dihydro-4H-1,3-benzoxazin-4-one] | 102 | 8.6 |
| Cc1ccc(Cc2cc3c(c(F)c2C)OCN([C@H]2CCC[C@@H]2O)C3=O)cn1 [Example 20, 8-fluoro-3-((1S,2S)-2-hydroxycyclopentyl)-7-methyl-6-((6-methylpyridin-3-yl)methyl)-2,3-dihydro-4H-1,3-benzoxazin-4-one] | 85 | 24 |
| O=C1c2cc(Cc3ccc(Cl)nc3)c3ccccc3c2OCN1[C@H]1CCC[C@@H]1O [Example 43, 6-((6-chloropyridin-3-yl)methyl)-3-((1S,2S)-2-hydroxycyclopentyl)-2,3-dihydro-4H-naphtho[2,1-e][1,3]oxazin-4-one] | 93 | 2.4 |
| N#CC1CCN(Cc2cc3c(c4ccccc24)OCN([C@H]2CCC[C@@H]2O)C3=O)CC1 [Example 70, 1-((3-((1S,2S)-2-hydroxycyclopentyl)-4-oxo-3,4-dihydro-2H-naphtho[2,1-e][1,3]oxazin-6-yl)methyl)piperidine-4-carbonitrile] | 104 | 52 |
| COc1ccc(Cc2cc3c(cc2C)OCN([C@H]2COCC[C@@H]2O)C3=O)cc1 (relative stereo) [Example 86, 1,5-anhydro-2,4-dideoxy-2-(6-(4-methoxybenzyl)-7-methyl-4-oxo-2H-1,3-benzoxazin-3(4H)-yl)-threo-pentitol] | 99 | 100 |
| Cc1c(Cc2ccc(-c3cnn(C)c3)nc2)cc2c(c1C)OCN([C@H]1CCCC[C@@H]1O)C2=O (relative stereo) [Example 49, 3-(trans-2-hydroxycyclohexyl)-7,8-dimethyl-6-((6-(1-methyl-1H-pyrazol-4-yl)pyridin-3-yl)methyl)-2,3-dihydro-4H-1,3-benzoxazin-4-one] | 108 | 8 |
| O=C1c2cc(Cc3ccc(Cl)nc3)c3ccccc3c2OCN1[C@H]1COCC[C@@H]1O [Example 125, 1,5-anhydro-2-(6-((6-chloropyridin-3-yl)methyl)-4-oxo-2H-naphtho[2,1-e][1,3]oxazin-3(4H)-yl)-2,4-dideoxy-L-threo-pentitol] | 89 | 3.8 |
| O=C1c2cc(CN3CCC(F)CC3)c3ccccc3c2OCN1[C@H]1CCC[C@@H]1O [Example 79, 6-((4-fluoropiperidin-1-yl)methyl)-3-((1S,2S)-2-hydroxycyclopentyl)-2,3-dihydro-4H-naphtho[2,1-e][1,3]oxazin-4-one] | 97 | 78 |
